Experimental data from patent US20240043386A1, “Modulators of the Cystic Fibrosis Transmembrane Conductance Regulator Protein and Methods of Use” (AbbVie Global Enterprises Ltd., priority 2021, published 2024).
Like-named read-outs stand apart in the source and are kept apart here.

Columns and labels:
F508del/F508del CFTR = molecular target: T1, F508del/F508del CFTR (Homo sapiens, UniProt P13569, DEL508-508); assay: Trans-Epithelial Current Clamp (TECC) assay using primary human bronchial epithelial cells; type: cell-based; conditions: for Emax (% Dual): maximum percent activity relative to positive control (co-corrector 0.15 μM + potentiator 0.45 μM = 100%), primary hBE cells F508del/F508del; for EC50: primary hBE cells homozygous F508del/F508del, test C2 corrector with co-corrector and potentiator, 18-24 hours at 37° C., equivalent CFTR current (IEQ)/AUC
T1 construct: cells isolated from CF patients with the homozygous mutation; endogenous in cells; host or cells: primary human bronchial epithelial (hBE) cells from CF patients homozygous for F508del
T1 sequence (P13569 with tags, fused parts or gaps DEL508-508): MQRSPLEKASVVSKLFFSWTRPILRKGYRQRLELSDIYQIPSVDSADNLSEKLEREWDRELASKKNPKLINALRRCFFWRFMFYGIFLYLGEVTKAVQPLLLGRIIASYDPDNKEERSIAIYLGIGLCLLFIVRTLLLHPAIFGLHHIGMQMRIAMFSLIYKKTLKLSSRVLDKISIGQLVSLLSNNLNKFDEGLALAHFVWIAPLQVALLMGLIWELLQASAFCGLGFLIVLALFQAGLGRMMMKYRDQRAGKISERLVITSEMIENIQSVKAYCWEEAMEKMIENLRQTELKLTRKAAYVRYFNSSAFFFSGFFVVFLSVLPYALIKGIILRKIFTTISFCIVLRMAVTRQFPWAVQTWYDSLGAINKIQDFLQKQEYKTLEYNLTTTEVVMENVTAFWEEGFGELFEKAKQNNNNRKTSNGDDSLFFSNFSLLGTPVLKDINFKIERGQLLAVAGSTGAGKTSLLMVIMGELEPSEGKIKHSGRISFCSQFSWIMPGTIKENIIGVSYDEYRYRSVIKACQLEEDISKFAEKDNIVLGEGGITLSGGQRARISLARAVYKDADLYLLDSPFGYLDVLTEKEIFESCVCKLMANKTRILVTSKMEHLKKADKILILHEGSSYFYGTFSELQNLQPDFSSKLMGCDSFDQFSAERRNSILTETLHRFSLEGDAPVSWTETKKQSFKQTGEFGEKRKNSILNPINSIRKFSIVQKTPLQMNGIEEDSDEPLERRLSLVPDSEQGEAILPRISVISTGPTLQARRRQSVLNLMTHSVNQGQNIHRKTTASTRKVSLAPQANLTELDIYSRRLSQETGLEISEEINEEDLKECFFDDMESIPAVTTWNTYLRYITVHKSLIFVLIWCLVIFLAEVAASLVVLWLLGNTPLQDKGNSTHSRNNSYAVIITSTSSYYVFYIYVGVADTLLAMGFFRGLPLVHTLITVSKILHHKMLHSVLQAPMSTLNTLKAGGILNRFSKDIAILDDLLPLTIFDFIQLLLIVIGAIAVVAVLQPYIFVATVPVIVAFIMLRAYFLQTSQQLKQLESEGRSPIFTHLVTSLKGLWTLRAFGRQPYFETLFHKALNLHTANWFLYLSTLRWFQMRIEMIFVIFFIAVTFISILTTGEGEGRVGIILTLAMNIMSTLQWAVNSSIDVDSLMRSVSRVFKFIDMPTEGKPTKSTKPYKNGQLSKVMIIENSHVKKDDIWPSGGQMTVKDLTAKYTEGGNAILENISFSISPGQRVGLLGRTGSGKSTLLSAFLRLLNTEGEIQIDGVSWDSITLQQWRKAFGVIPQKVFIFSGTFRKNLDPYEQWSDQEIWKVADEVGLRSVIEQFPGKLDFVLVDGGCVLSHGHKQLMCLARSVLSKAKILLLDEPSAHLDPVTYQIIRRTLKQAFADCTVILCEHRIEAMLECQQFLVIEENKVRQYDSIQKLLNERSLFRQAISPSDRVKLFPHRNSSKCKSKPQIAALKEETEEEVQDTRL
In short: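 F508del/F508del primary hBE cells grown 35 days at air-liquid interface were treated basolaterally with C2 correctors plus fixed co-corrector and potentiator for 18-24 h at 37° C. TECC-24 current clamp at 36.5° C in HEPES-buffered F-12 Coon's, pH 7.4; equivalent current IEQ=VT/RT, plus AUC between forskolin peak and bumetanide.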

F508delCFTR = molecular target: T2, F508delCFTR (Homo sapiens, UniProt P13569, DEL508-508); assay: Cell Surface Expression-Horse Radish Peroxidase (CSE-HRP) assay in CFBE41o-F508delCFTR-HRP cells; type: cell-based; conditions: for EC50: CFBE41o-F508delCFTR-HRP cells, 18-24 hours at 33° C., luminescence; for Maximum % activity (with co-corrector) / Maximum % activity (without co-corrector): normalized to on-plate positive control corrector (2 μM)
T2 construct: expressed in transfected cells; host or cells: CFBE41o- human lung-derived epithelial cell line, doxycycline-inducible expression
T2 sequence (P13569 with tags, fused parts or gaps DEL508-508): as above
In short: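 CFBE41o- cells expressing F508delCFTR with HRP in the fourth exofacial loop were doxycycline-induced (0.5 μg/mL) for 68–72 h, then exposed to correctors for 18–24 h at 33 °C, with or without 2 μM co-corrector. Surface HRP was read by luminol luminescence, and % activity was normalized to the on-plate positive control; EC50 came from a variable-slope sigmoidal fit (8 points, 3-fold dilution, 20 or 30 μM top).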

[1] = with co-corrector (2 μM), read-out: EC50 (with co-corrector)
[2] = without co-corrector, read-out: EC50 (without co-corrector)

Structure (SMILES)	Emax (% Dual) (F508del/F508del CFTR)	EC50 (F508del/F508del CFTR) [nM]	EC50 (F508delCFTR; [1]) [nM]	Maximum % activity (with co-corrector) (F508delCFTR; with co-corrector (2 μM)) [%]	EC50 (F508delCFTR; [2]) [nM]	Maximum % activity (without co-corrector) (F508delCFTR; without co-corrector) [%]	Maximum % activity (without co-corrector) (F508delCFTR; without co-corrector, 2 µM) [%]
COc1ccc(C)cc1[C@@]1(C(=O)NS(=O)(=O)c2cccc3nc(C)ccc23)C[C@H]1c1cncc(C)n1 (single isomer, unassigned) [Example 45]	179	> 300	4620	427	6150	128	–
COc1cncc([C@@H]2C[C@]2(C(=O)NS(=O)(=O)c2cccc3nc(C)ccc23)c2cc(C)ccc2OC)c1 (single isomer, unassigned) [Example 51]	135	> 300	4380	406	5440	108	–
COc1ccc(C)cc1[C@]1(C(=O)NS(=O)(=O)c2cccc3nc(C)ccc23)C[C@@H]1c1ccccc1C(F)(F)F (single isomer, unassigned) [Example 30]	313	46.6	260	–	263	589	–
COc1ccc(C)cc1[C@@]1(C(=O)NS(=O)(=O)c2cccc3nc(C)ccc23)C[C@H]1c1ccc(C)cc1 (single isomer, unassigned) [Example 6]	378	5.3	202	–	187	982	–
COc1ncc([C@@H]2C[C@]2(C(=O)NS(=O)(=O)c2cccc3nc(C)ccc23)c2cc(C)ccc2OC)cn1 (single isomer, unassigned) [Example 37]	152	42	3680	460	7260	113	–
COc1cccc([C@@H]2C[C@]2(C(=O)NS(=O)(=O)c2cccc3nc(C)ccc23)c2cc(C)ccc2OC)n1 [Example 44, (1R,2R)-1-(2-methoxy-5-methylphenyl)-2-(6-methoxypyridin-2-yl)-N-(2-methylquinoline-5-sulfonyl)cyclopropane-1-carboxamide]	193	16.6	865	982	1410	384	–
COc1ccc(C)cc1[C@]1(C(=O)NS(=O)(=O)c2cccc3nc(C)ccc23)C[C@@H]1c1cccnc1OC (single isomer, unassigned) [Example 50]	359	5.2	954	–	2340	951	–
COc1ccc(C)cc1[C@]1(C(=O)NS(=O)(=O)c2cccc3nc(C)ccc23)C[C@@H]1c1cccc(C(F)(F)F)c1 (single isomer, unassigned) [Example 23]	294	6.2	259	–	327	–	–
COc1ccc(C)cc1[C@]1(C(=O)NS(=O)(=O)c2cccc3nc(C)ccc23)C[C@@H]1c1ccccc1F (single isomer, unassigned) [Example 25]	305	4.3	388	–	1010	–	–
COc1ccc(C)cc1[C@]1(C(=O)NS(=O)(=O)c2cccc3nc(C)ccc23)C[C@@H]1c1ccc(C(C)C)nc1OC (single isomer, unassigned) [Example 88]	275	12.6	534	–	1180	910	–
COc1ccc(C)cc1[C@@]1(C(=O)NS(=O)(=O)c2cccc3nc(C)ccc23)C[C@H]1c1ccccc1 (single isomer, unassigned) [Example 2]	250	12.9	497	–	626	523	–
COc1cccc([C@@H]2C[C@]2(C(=O)NS(=O)(=O)c2cccc3nc(C)ccc23)c2cc(C)ccc2OC)c1 (single isomer, unassigned) [Example 27]	275	15.7	429	–	405	465	–
COc1ccc(C)cc1[C@]1(C(=O)NS(=O)(=O)c2cccc3nc(C)ccc23)CC1c1cccc(Cl)n1 (stereo in doubt) [Example 105, (1S,2S)-2-(6-chloropyridin-2-yl)-1-(2-methoxy-5-methylphenyl)-N-(2-methylquinoline-5-sulfonyl)cyclopropane-1-carboxamide]	296	3.1	277	–	1450	–	–
COc1ncc([C@@H]2C[C@]2(C(=O)NS(=O)(=O)c2cccc3nc(C)ccc23)c2cc(C)ccc2OC)cn1 (racemic) [Example 36, rac-(1r,2s)-1-(2-methoxy-5-methylphenyl)-2-(2-methoxypyrimidin-5-yl)-N-(2-methylquinoline-5-sulfonyl)cyclopropane-1-carboxamide]	173	> 300	2480	666	4320	248	–
COc1cccc([C@H]2C[C@@]2(C(=O)NS(=O)(=O)c2cccc3nc(C)ccc23)c2cc(C)ccc2OC)n1 [Example 43, (1s,2s)-1-(2-methoxy-5-methylphenyl)-2-(6-methoxypyridin-2-yl)-N-(2-methylquinoline-5-sulfonyl)cyclopropane-1-carboxamide]	272	2.9	806	–	2420	–	–
COc1ccc(C)cc1C1(C(=O)NS(=O)(=O)c2cccc3nc(C)ccc23)CC1c1ccc(C(F)(F)F)cc1 (racemic) [Example 5, rac-(1r,2s)-1-(2-methoxy-5-methylphenyl)-N-(2-methylquinoline-5-sulfonyl)-2-[4-(trifluoromethyl)phenyl]cyclopropane-1-carboxamide]	253	3.5	187	–	306	741	–
COc1cccc([C@@H]2C[C@]2(C(=O)NS(=O)(=O)c2cccc3nc(C)ccc23)c2cc(C)ccc2OC)c1 (racemic) [Example 15, rac-(1r,2s)-1-(2-methoxy-5-methylphenyl)-2-(3-methoxyphenyl)-N-(2-methylquinoline-5-sulfonyl)cyclopropane-1-carboxamide]	308	0.84	698	–	1010	–	–
COc1ccc([C@@H]2C[C@]2(C(=O)NS(=O)(=O)c2cccc3nc(C)ccc23)c2cc(C)ccc2OC)c(OC)n1 (single isomer, unassigned) [Example 93]	271	42.6	132	–	268	491	–
COc1ccc([C@@H]2C[C@]2(C(=O)NS(=O)(=O)c2cccc3nc(C)ccc23)c2cc(C)ccc2OC)cc1 (single isomer, unassigned) [Example 17]	296	0.66	–	–	2380	–	–
COc1ccc(C)cc1[C@]1(C(=O)NS(=O)(=O)c2cccc3nc(C)ccc23)C[C@@H]1c1ccccc1 (single isomer, unassigned) [Example 3]	360	0.992	994	–	2450	–	–
COc1ccc([C@@H]2C[C@]2(C(=O)NS(=O)(=O)c2cccc3nc(C)ccc23)c2cc(C)ccc2OC)cc1 (single isomer, unassigned) [Example 16]	308	8.4	393	–	328	–	784
COc1ccc(C)cc1[C@@]1(C(=O)NS(=O)(=O)c2cccc3nc(C)ccc23)C[C@H]1c1ccccc1C(F)(F)F (single isomer, unassigned) [Example 31]	307	6.2	163	–	239	776	–
COc1ccc(C)cc1[C@@]1(C(=O)NS(=O)(=O)c2cccc3nc(C)ccc23)C[C@H]1c1cccc(F)c1 (racemic) [Example 8, rac-(1r,2s)-2-(3-fluorophenyl)-1-(2-methoxy-5-methylphenyl)-N-(2-methylquinoline-5-sulfonyl)cyclopropane-1-carboxamide]	429	1.4	504	–	844	–	–
